Experiments:
[1] = Thermodynamic stability experiment (polymorphism screening of the methanesulfonate); format: physicochemical; conditions: pulped in solvents at 35° C. for 24 hours, XRPD
Method: 6.1 Polymorphism screening of the methanesulfonate of compound 2-(2-cyano-5-oxo-8-(trifluoromethyl)pyrazolo[1,5-a]pyrido[3,2-e]pyrimidin-4(5H)-yl)-N-(5-fluoropyridin-2-yl)acetamide
The mixture was magnetically pulped in a metal bath at 35° C. for 24 hours, and centrifuged. The resulting solid was dried, and the XRPD thereof was determined.

[2] = Solubility experiment in different media; format: physicochemical; conditions: for solubility at 24 h: thermodynamic from solid
Method: The vials were placed on a spin mixer overnight at room temperature. After 24 hours, the sample solution was filtered through a 0.45 μm mixed aqueous fiber membrane. The content of the compound in the filtrate was determined by HPLC. [table]

[3] = Hygroscopicity experiment (DVS); format: physicochemical
Outline: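 Crystalline salt forms equilibrated with water vapour at a range of relative humidities (DVS). Percentage weight gain at equilibrium recorded.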

[4] = Pharmacokinetic assay of the salt forms in rats (10 mg/kg); format: in vivo; conditions: SD rats
Method: 2.3 Pharmacokinetic assay of the methanesulfonate in rats
2.3.1. Study objective: SD rats were used as test animals. The pharmacokinetic behavior of various salt forms of 2-(2-cyano-5-oxo-8-(trifluoromethyl)pyrazolo[1,5-a]pyrido[3,2-e]pyrimidin-4(5H)-yl)-N-(5-fluoropyridin-2-yl)acetamide was studied in rat body (plasma) by orally administration at a dose of 10 mg/kg.
2.3.2.4 Administration: After an overnight fast, male SD rats (3 rats per group) were administered p.o. with the test compound at a dose of 10 mg/kg and a volume of 10 mL/kg.
2.3.2.5 Sample collection: 0.2 mL of blood was taken from the jugular vein of the rat before administration and at 0, 0.5, 1, 2, 4, 6, 8 and 24 hours after administration. The samples were stored in EDTA-K2 tubes, and centrifuged for 6 minutes at 4° C., 6000 rpm to separate the plasma. The plasma samples were stored at −80° C.
1) 160 μL of acetonitrile was added to 40 μL of the plasma sample for precipitation, and then the mixture was centrifuged at 3500×g for 5 to 20 minutes.
2) After the above process, 100 μL of the supernatant was taken to analyze the concentration of the test compound by LC/MS/MS.
2.3.2.7 Liquid chromatography analysis • Liquid chromatography condition: Shimadzu LC-20AD pump • Mass spectrometry condition: AB Sciex API 4000 mass spectrometer • Chromatographic column: phenomenex Gemiu 5 um C18 50×4.6 mm • Mobile phase: Eluent A was 0.1% formic acid in water, and Eluent B was acetonitrile • Flow rate: 0.8 mL/min • Elution time: 0-4.0 minutes, the eluent is as follows:
The main parameters of pharmacokinetics were calculated by WinNonlin 8.2.

[5] = Solid stability experiment (high temperature, high humidity, high temperature and high humidity); format: physicochemical
Method: 4.1.1 Experimental objective: To investigate the physical and chemical stability of the crystal form of the compound under the conditions of high temperature, high humidity, as well as high temperature and high humidity, so as to provide a basis for crystal form screening and storage of the crystal form of the compound.
The content of the salt was determined by HPLC using the external standard method, and the change of relevant substances was calculated by using the chromatographic peak area normalization method.

[6] = Cycle 1, target relative humidity 0.0%, 25° C.
[7] = Cycle 1, target relative humidity 10.0%, 25° C.
[8] = Cycle 1, target relative humidity 20.0%, 25° C.
[9] = Cycle 1, target relative humidity 30.0%, 25° C.
[10] = Cycle 1, target relative humidity 40.0%, 25° C.
[11] = Cycle 1, target relative humidity 50.0%, 25° C.
[12] = Cycle 1, target relative humidity 60.0%, 25° C.
[13] = Cycle 1, target relative humidity 70.0%, 25° C.
[14] = Cycle 1, target relative humidity 80.0%, 25° C.
[15] = Cycle 1, target relative humidity 90.0%, 25° C.
[16] = Cycle 1, target relative humidity 95.0%, 25° C.
[17] = Cycle 2, target relative humidity 0.0%, 25° C.
[18] = Cycle 2, target relative humidity 10.0%, 25° C.
[19] = Cycle 2, target relative humidity 20.0%, 25° C.
[20] = Cycle 2, target relative humidity 30.0%, 25° C.
[21] = Cycle 2, target relative humidity 40.0%, 25° C.
[22] = Cycle 2, target relative humidity 50.0%, 25° C.
[23] = Cycle 2, target relative humidity 60.0%, 25° C.
[24] = Cycle 2, target relative humidity 70.0%, 25° C.
[25] = Cycle 2, target relative humidity 80.0%, 25° C.
[26] = Cycle 2, target relative humidity 90.0%, 25° C.
[27] = Cycle 2, target relative humidity 95.0%, 25° C.
[28] = High humidity (92.5% RH), Day 7
[29] = High humidity (92.5% RH), Day 14
[30] = High temperature (60° C.), Day 7
[31] = High temperature (60° C.), Day 14
[32] = High temperature and high humidity (50° C.&75% RH), Day 7
[33] = High temperature and high humidity (50° C.&75% RH), Day 14

## CS(=O)(=O)O.N#Cc1cc2n(CC(=O)Nc3ccc(F)cn3)c(=O)c3ccc(C(F)(F)F)nc3n2n1 [Methanesulfonate (crystal form A), 2-(2-cyano-5-oxo-8-(trifluoromethyl)pyrazolo[1,5-a]pyrido[3,2-e]pyrimidin-4(5H)-yl)-N-(5-fluoropyridin-2-yl)acetamide methanesulfonate]
[1]
  thermodynamic stability of the crystal form: thermodynamically stable crystal form
[2]; aqueous buffer, USP Buffer pH 3, room temperature
  solubility at 24 h: 4.3 µg/mL
[2]; aqueous buffer, USP Buffer pH 4, room temperature
  solubility at 24 h: 3.6 µg/mL
[2]; aqueous buffer, USP Buffer pH 5, room temperature
  solubility at 24 h: 3 µg/mL
[2]; aqueous buffer, USP Buffer pH 6, room temperature
  solubility at 24 h: 2.4 µg/mL
[2]; aqueous buffer, USP Buffer pH 7, room temperature
  solubility at 24 h: 2.2 µg/mL
[2]; aqueous buffer, USP Buffer pH 8, room temperature
  solubility at 24 h: 1.8 µg/mL
[2]; fassgf or other biorelevant, FaSSGF, room temperature
  solubility at 24 h: 3.3 µg/mL
[2]; pure water, water, H2O, room temperature
  solubility at 24 h: 1.9 µg/mL
[2]; room temperature, 24 hours, buffers, FaSSGF, FaSSIF, FeSSIF, water
  solubility in the corresponding media compared with crystal form II of the free base: increased by more than four times
[2]; simulated gastric fluid, USP Buffer pH 1, room temperature
  solubility at 24 h: 2.3 µg/mL
[2]; simulated gastric fluid, USP Buffer pH 2, room temperature
  solubility at 24 h: 2.3 µg/mL
[2]; FaSSIF, room temperature
  solubility at 24 h: 7.8 µg/mL
[2]; FeSSIF, room temperature
  solubility at 24 h: 11.3 µg/mL
[3]; 25° C., relative humidity 80%
  hygroscopicity (Chinese Pharmacopoeia description): slightly hygroscopic
[3]; 80% relative humidity
  hygroscopic weight gain: ≤ 0.5%
[3]; [6]
  % percentage of mass change, Desorption: −0.029%
  % percentage of mass change, Sorption: 0.000%
[3]; [7]
  % percentage of mass change, Desorption: 0.030%
  % percentage of mass change, Sorption: 0.051%
[3]; [8]
  % percentage of mass change, Desorption: 0.082%
  % percentage of mass change, Sorption: 0.096%
[3]; [9]
  % percentage of mass change, Desorption: 0.133%
  % percentage of mass change, Sorption: 0.138%
[3]; [10]
  % percentage of mass change, Desorption: 0.190%
  % percentage of mass change, Sorption: 0.179%
[3]; [11]
  % percentage of mass change, Desorption: 0.253%
  % percentage of mass change, Sorption: 0.222%
[3]; [12]
  % percentage of mass change, Desorption: 0.320%
  % percentage of mass change, Sorption: 0.272%
[3]; [13]
  % percentage of mass change, Desorption: 0.395%
  % percentage of mass change, Sorption: 0.340%
[3]; [14]
  % percentage of mass change, Desorption: 0.502%
  % percentage of mass change, Sorption: 0.446%
[3]; [15]
  % percentage of mass change, Desorption: 0.760%
  % percentage of mass change, Sorption: 0.700%
[3]; [16]
  % percentage of mass change, Desorption: 1.109%
  % percentage of mass change, Sorption: 1.109%
[3]; [17]
  % percentage of mass change, Desorption: −0.046%
  % percentage of mass change, Sorption: −0.029%
[3]; [18]
  % percentage of mass change, Desorption: 0.014%
  % percentage of mass change, Sorption: 0.024%
[3]; [19]
  % percentage of mass change, Desorption: 0.067%
  % percentage of mass change, Sorption: 0.073%
[3]; [20]
  % percentage of mass change, Desorption: 0.118%
  % percentage of mass change, Sorption: 0.118%
[3]; [21]
  % percentage of mass change, Desorption: 0.177%
  % percentage of mass change, Sorption: 0.162%
[3]; [22]
  % percentage of mass change, Desorption: 0.241%
  % percentage of mass change, Sorption: 0.209%
[3]; [23]
  % percentage of mass change, Desorption: 0.305%
  % percentage of mass change, Sorption: 0.263%
[3]; [24]
  % percentage of mass change, Desorption: 0.378%
  % percentage of mass change, Sorption: 0.331%
[3]; [25]
  % percentage of mass change, Desorption: 0.480%
  % percentage of mass change, Sorption: 0.433%
[3]; [26]
  % percentage of mass change, Desorption: 0.734%
  % percentage of mass change, Sorption: 0.675%
[3]; [27]
  % percentage of mass change, Desorption: 1.076%
  % percentage of mass change, Sorption: 1.076%
[4]; 10 mg/kg
  exposure AUC and maximum plasma concentration Cmax compared with the free base: superior
[4]; male, rat, po, p.o. 10 mg/kg, plasma, vehicle 0.5% HPMC, read-out: Area under curve AUC0-t
  AUC(0-t): 25800 ng·h/mL
[4]; male, rat, po, p.o. 10 mg/kg, plasma, vehicle 0.5% HPMC, read-out: Average residence time MRT0-∞
  MRT inf: 4.8 h
[4]; male, rat, po, p.o. 10 mg/kg, plasma, vehicle 0.5% HPMC, read-out: Half life t1/2 (converted)
  half-life: 2.7 h
[4]; male, rat, po, p.o. 10 mg/kg, plasma, vehicle 0.5% HPMC, read-out: Peak time tmax
  Tmax: 4 h
[4]; male, rat, po, p.o. 10 mg/kg, plasma, vehicle 0.5% HPMC, read-out: Plasma concentration Cmax
  Cmax: 3320 ng/mL
[5]; 50° C.&75% RH, 7 and 14 days
  solid stability under high temperature and high humidity: stable
[5]; 60° C., 7 and 14 days
  solid stability under high temperature: stable
[5]; 92.5% RH, 7 and 14 days
  solid stability under high humidity: stable
[5]; [28]
  % increase of total impurities: <0.1%
  % maximum increase of single impurity: <0.1%
[5]; [29]
  % increase of total impurities: <0.1%
  % maximum increase of single impurity: <0.1%
[5]; [30]
  % increase of total impurities: <0.2%
  % maximum increase of single impurity: <0.1%
[5]; [31]
  % increase of total impurities: <0.1%
  % maximum increase of single impurity: <0.1%
[5]; [32]
  % increase of total impurities: <0.1%
  % maximum increase of single impurity: <0.1%
[5]; [33]
  % increase of total impurities: <0.1%
  % maximum increase of single impurity: <0.1%

From patent publication US20240376108A1, “SALT AND CRYSTAL FORM OF PYRAZOLE-CONTAINING POLYCYCLIC DERIVATIVE, AND PREPARATION METHOD THEREFOR AND USE THEREOF” (Shanghai Hansoh Biomedical Co., Ltd., priority 2021, published 2024)
